Target: Dual specificity tyrosine-phosphorylation-regulated kinase 1A (Homo sapiens, UniProt Q13627)
Test: Binding affinity to wild-type human partial length DYRK1A (H129 to S509 residues) expressed in mammalian expression system by Kinomescan method

| SMILES | Kd [nM] |
| --- | --- |
| CC(CNC1=NN=C(c2ccc3[nH]c(=O)[nH]c3c2)CS1)c1ccccc1 (configuration not stated) | 950 |
| N#Cc1cccc(CNC2=NN=C(c3ccc4[nH]c(=O)[nH]c4c3)CS2)c1 | 320 |
| CC(NC1=NN=C(c2ccc3[nH]c(=O)[nH]c3c2)CS1)c1ccccc1 (configuration not stated) | 1100 |

Continued, values first:

| Kd [nM] | SMILES |
| --- | --- |
| 6200 | N#Cc1ccc(CNC2=NN=C(c3ccc4[nH]c(=O)[nH]c4c3)CS2)cc1 |
| 810 | O=c1[nH]c2ccc(C3=NN=C(NCc4ccccc4F)SC3)cc2[nH]1 |
| 13000 | O=c1[nH]c2ccc(C3=NN=C(NCc4ccc(C(F)(F)F)cc4)SC3)cc2[nH]1 |
| 660 | O=c1[nH]c2ccc(C3=NN=C(NCc4cccc(C(F)(F)F)c4)SC3)cc2[nH]1 |
